# Results: patent US20190382432A1 (Synbias Pharma AG, priority 2013, published 2019)
# Where a name gives a salt, the structure may show the parent alone. Marks after values point to notes of the source that are not given here.
# Columns and labels:
# Type in all cases: physicochemical
# [1] = Hygroscopic capacity: water content by Karl-Fischer titration after exposure to temperature and relative humidity; settings: 25 or 40 °C, 40-90% rh; data not shown
# Protocol: Coulometric Karl-Fischer titration (KFT; for determining the water content) was performed with an external drying oven (Metrohm 707 KF; operated at 140° C. with N2 purge). The samples were precisely weighed on an analytical balance (10^−5 g).
# The testing was performed as described in the ICH guidelines.
# [2] = Thermostability on storage at 25, 40 and 100 °C per ICH Q1A (R2), HPLC; settings: 25, 40, 100 °C; data not shown
# Protocol: HPLC and GC analyses were performed according to standard protocols.
# The testing was performed as described in the ICH guidelines (cf. inter alia ICH Guideline Q1A (R2)).
# [3] = Thermostability under stress conditions (storage at 100 °C for one month), HPLC
# Protocol: Sample S was prepared according to the present invention, as described in Example 3 above. Sample M1 was prepared according to Example 1 of WO 2012/163508 A1, as described in Example 7 above. Finally, Sample M2 was prepared according to Example 2 of WO 2012/163508 A1, as described in Example 7 above.
# The samples were exposed to a temperature of 100° C. for the time period (in weeks) indicated. The testing was performed as described in the ICH Guideline Q1A (R2) (cf. above). The amount of the degradation product (i.e. doxorubicinone) produced as well as those of various impurities (i.e., doxorubicin and four different impurities of yet unknown identity; all given in % (w/w); “n.d.”=not determined) was determined by HPCL analysis (“LT”=less than).
# [4] = Particle size distribution by laser diffraction analysis (Mastersizer 2000); settings: wet laser diffraction in acetone; listed as Sample 1, hydrochloride
# Protocol: Laser diffraction analysis was performed in form of wet laser diffraction in acetone: 1750 rpm, 3×20 s cycle time, 60 s background time, without sonication, and 5 min stirring time using a Mastersizer 2000 Particle Size Analyzer (Malvern Instruments Ltd., Malvern, UK) according to the manufacturer's instructions.
compound,measurement,setting,value
"COc1cccc2c1C(=O)c1c(O)c3c(c(O)c1C2=O)C[C@@](O)(C(=O)CO)C[C@@H]3O[C@H]1C[C@H](N)[C@H](O)[C@H](C)O1 [Example 2, epirubicin hydrochloride]","Hygroscopic capacity compared with the Example 1 monohydrate (TABLE 6-1), in words",[1],almost identical results
same,"Thermostability compared with the Example 1 monohydrate (TABLE 5-1), in words",[2],almost identical results
"COc1cccc2c1C(=O)c1c(O)c3c(c(O)c1C2=O)C[C@@](O)(C(=O)CO)C[C@@H]3O[C@H]1C[C@H](N)[C@H](O)[C@H](C)O1 [Example M1, epirubicin hydrochloride]",Doxorubicin (NMT 1%),[3]; 0 weeks,0.29 % (w/w)
same,Doxorubicinone (Aglycone) (NMT 1%),[3]; 0 weeks,< 0.05 % (w/w)
same,Total Impurities (NMT 2%),[3]; 0 weeks,0.30 % (w/w)
same,Doxorubicin (NMT 1%),"[3]; 1 week, hydrochloride",0.27 % (w/w)
same,Doxorubicinone (Aglycone) (NMT 1%),"[3]; 1 week, hydrochloride",0.52 % (w/w)
same,Total Impurities (NMT 2%),"[3]; 1 week, hydrochloride",1.20 % (w/w)
same,Unknown impurity RRT 1.2 (NMT 0.15%),"[3]; 1 week, hydrochloride",0.06 % (w/w)
same,Unknown impurity RRT 1.6 (NMT 0.15%),"[3]; 1 week, hydrochloride",0.08 % (w/w)
same,Unknown impurity RRT 1.7 (NMT 0.15%),"[3]; 1 week, hydrochloride",0.12 % (w/w)
same,Doxorubicin (NMT 1%),[3]; 2 weeks,0.32 % (w/w)
same,Doxorubicinone (Aglycone) (NMT 1%),"[3]; 2 weeks, hydrochloride",0.57 % (w/w)
same,Total Impurities (NMT 2%),"[3]; 2 weeks, hydrochloride",1.60 % (w/w)
same,Unknown impurity RRT 1.1 (NMT 0.15%),"[3]; 2 weeks, hydrochloride",0.11 % (w/w)
same,Unknown impurity RRT 1.2 (NMT 0.15%),"[3]; 2 weeks, hydrochloride",0.13 % (w/w)
same,Unknown impurity RRT 1.6 (NMT 0.15%),"[3]; 2 weeks, hydrochloride",0.18 % (w/w)
same,Unknown impurity RRT 1.7 (NMT 0.15%),"[3]; 2 weeks, hydrochloride",0.16 % (w/w)
same,Doxorubicin (NMT 1%),"[3]; 3 weeks, hydrochloride",0.33 % (w/w)
same,Doxorubicinone (Aglycone) (NMT 1%),"[3]; 3 weeks, hydrochloride",0.61 % (w/w)
same,Total Impurities (NMT 2%),"[3]; 3 weeks, hydrochloride",1.80 % (w/w)
same,Unknown impurity RRT 1.1 (NMT 0.15%),"[3]; 3 weeks, hydrochloride",0.14 % (w/w)
same,Unknown impurity RRT 1.2 (NMT 0.15%),"[3]; 3 weeks, hydrochloride",0.14 % (w/w)
same,Unknown impurity RRT 1.6 (NMT 0.15%),"[3]; 3 weeks, hydrochloride",0.24 % (w/w)
same,Unknown impurity RRT 1.7 (NMT 0.15%),"[3]; 3 weeks, hydrochloride",0.20 % (w/w)
same,Doxorubicin (NMT 1%),[3]; 4 weeks,0.33 % (w/w)
same,Doxorubicinone (Aglycone) (NMT 1%),"[3]; 4 weeks, hydrochloride",0.61 % (w/w)
same,Total Impurities (NMT 2%),"[3]; 4 weeks, hydrochloride",2.3* % (w/w)
same,Total amount of unknown impurities,"[3]; 4 weeks, hydrochloride",1.36 % (w/w)
same,Unknown impurity RRT 1.1 (NMT 0.15%),"[3]; 4 weeks, hydrochloride",0.18 % (w/w)
same,Unknown impurity RRT 1.2 (NMT 0.15%),"[3]; 4 weeks, hydrochloride",0.18 % (w/w)
same,Unknown impurity RRT 1.6 (NMT 0.15%),"[3]; 4 weeks, hydrochloride",0.46 % (w/w)
same,Unknown impurity RRT 1.7 (NMT 0.15%),"[3]; 4 weeks, hydrochloride",0.31 % (w/w)
same,"D(v/0.5), mean diameter based on the volume of the particles",[4],4.62 μm
